ChEMBL document CHEMBL5120749, “Human estrogen receptor α antagonists, part 2: Synthesis driven by rational design, in vitro antiproliferative, and in vivo anticancer evaluation of innovative coumarin-related antiestrogens as breast cancer suppressants” (Eur J Med Chem, 2022)
Values belong to the compound of their own block, whether it stands above or below them.

Tests used:
Estrogen receptor beta [1] = target: T1, Estrogen receptor beta (Homo sapiens, UniProt Q92731)
Description: (§1) Antagonist activity at ERbeta (unknown origin)

MCF7 = assay: cells; settings: Homo sapiens
Description: Antiproliferative activity against human MCF7 cells

Progesterone receptor = target: T2, Progesterone receptor (Homo sapiens, UniProt P06401)
T2 sequence (P06401 whole entry): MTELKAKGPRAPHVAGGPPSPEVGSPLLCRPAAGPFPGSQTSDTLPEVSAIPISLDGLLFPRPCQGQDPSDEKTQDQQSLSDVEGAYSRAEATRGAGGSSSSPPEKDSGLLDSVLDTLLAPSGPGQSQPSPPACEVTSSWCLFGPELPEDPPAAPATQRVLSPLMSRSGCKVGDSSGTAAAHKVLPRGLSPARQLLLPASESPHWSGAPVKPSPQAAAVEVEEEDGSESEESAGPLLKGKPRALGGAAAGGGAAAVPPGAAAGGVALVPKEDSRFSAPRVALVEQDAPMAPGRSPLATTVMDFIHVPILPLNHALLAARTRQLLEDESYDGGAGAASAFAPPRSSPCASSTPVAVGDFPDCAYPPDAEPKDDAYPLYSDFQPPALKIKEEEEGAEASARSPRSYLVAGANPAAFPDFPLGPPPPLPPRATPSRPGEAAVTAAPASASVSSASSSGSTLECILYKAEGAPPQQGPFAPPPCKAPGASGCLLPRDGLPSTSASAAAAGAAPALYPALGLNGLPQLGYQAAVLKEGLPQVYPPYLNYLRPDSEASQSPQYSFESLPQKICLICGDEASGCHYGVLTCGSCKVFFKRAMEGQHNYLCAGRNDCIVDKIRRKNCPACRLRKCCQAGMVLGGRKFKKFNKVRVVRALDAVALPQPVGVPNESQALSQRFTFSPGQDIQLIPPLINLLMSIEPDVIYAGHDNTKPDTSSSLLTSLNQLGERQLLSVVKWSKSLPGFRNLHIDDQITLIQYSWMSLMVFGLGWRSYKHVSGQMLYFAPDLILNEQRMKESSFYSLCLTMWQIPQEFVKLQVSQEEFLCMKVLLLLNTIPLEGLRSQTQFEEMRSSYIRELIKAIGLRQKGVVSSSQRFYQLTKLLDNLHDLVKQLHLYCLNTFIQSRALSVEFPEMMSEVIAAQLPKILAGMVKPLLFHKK
Description: Antagonist activity at progesterone receptor in human MCF7 cells

Estrogen receptor [2] = target: T3, Estrogen receptor (Homo sapiens, UniProt P03372)
T3 sequence (P03372 whole entry): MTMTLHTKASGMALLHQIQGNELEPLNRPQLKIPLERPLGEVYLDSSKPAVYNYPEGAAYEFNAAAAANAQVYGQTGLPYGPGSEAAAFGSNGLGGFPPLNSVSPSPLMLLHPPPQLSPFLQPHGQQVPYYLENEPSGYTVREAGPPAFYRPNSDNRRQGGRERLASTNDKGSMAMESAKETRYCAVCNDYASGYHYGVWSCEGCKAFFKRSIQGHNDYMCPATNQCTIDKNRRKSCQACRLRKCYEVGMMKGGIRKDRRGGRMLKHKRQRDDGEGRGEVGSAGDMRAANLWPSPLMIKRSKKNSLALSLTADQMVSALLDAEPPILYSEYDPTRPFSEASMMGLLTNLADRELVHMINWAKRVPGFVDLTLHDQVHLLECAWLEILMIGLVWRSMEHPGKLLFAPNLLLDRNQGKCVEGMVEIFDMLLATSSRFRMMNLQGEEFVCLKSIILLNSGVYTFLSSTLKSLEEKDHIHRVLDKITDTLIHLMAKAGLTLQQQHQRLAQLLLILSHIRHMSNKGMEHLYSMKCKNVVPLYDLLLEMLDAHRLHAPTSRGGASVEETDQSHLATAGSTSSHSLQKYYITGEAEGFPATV
Description: (§2) Antagonist activity at ERalpha (unknown origin)

MDA-MB-231 = assay: cells; settings: Homo sapiens
Description: Antiproliferative activity against human MDA-MB-231 cells

Estrogen receptor beta [3] = target: T1, Estrogen receptor beta; settings: filed as antagonist
Description: Relative binding affinity to ERbeta (unknown origin)

Estrogen receptor beta [4] = target: T1, Estrogen receptor beta; settings: filed as antagonist; remark: listed apart in the source
Description: as §1

Ishikawa = assay: cells; settings: Homo sapiens
Description: Antiproliferative activity against human Ishikawa cells

MRC5 = assay: cells; settings: Homo sapiens
Description: Antiproliferative activity against human MRC5 cells

[5] = target: T4, Estrogen receptor (Homo sapiens) (UniProt P03372); settings: filed as antagonist
T4 sequence (whole entry): T3 sequence (P03372 whole entry)
Description: Relative binding affinity to ERalpha (unknown origin)

[6] = target: T4, Estrogen receptor (Homo sapiens); settings: filed as antagonist; remark: listed apart in the source
Description: as §2

Estrogen receptor [7] = target: T3, Estrogen receptor; remark: listed apart in the source
Description: Antagonist activity at ERalpha in human MCF7 cells assessed as downregulation of ERalpha

in vivo [8] = settings: rat, po, 5 mg/kg
physchem = settings: octanol/water
Description: (§3) Lipophilicity, logD of the compound by shake-flask method

in vivo [9] = settings: rat, po, 50 mg/kg
[10] = octanol/water
Description: as §3

T1 sequence (Q92731 whole entry): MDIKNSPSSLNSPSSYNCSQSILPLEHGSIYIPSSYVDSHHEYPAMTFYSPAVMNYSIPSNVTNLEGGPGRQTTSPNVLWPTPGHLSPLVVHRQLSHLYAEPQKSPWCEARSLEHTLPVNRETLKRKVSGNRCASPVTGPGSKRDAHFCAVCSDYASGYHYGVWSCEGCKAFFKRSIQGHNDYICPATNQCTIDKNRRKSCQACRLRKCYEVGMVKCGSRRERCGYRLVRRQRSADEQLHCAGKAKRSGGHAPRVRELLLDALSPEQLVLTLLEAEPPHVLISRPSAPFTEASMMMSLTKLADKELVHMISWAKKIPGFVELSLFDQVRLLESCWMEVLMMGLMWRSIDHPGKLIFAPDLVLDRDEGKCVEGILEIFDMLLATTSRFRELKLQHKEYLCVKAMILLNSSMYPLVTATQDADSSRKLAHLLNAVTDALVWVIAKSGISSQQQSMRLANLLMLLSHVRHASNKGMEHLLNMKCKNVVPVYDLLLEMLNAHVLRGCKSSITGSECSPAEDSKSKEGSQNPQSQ

- IC50 (Estrogen receptor beta [1]): 5.73 µM
- IC50 (MCF7): 0.00093 µM
- IC50 (Progesterone receptor): > 0.1 µM
- IC50 (Estrogen receptor [2]): 0.00075 µM
- IC50 (MDA-MB-231): 0.0415 µM
- log(RBA) (Estrogen receptor beta [3]): 0.19
- Ka (Estrogen receptor beta [4]): 32.2 nM
- IC50 (Ishikawa): 0.00089 µM
- log(RBA) [5]: 2.07
- Ka [6]: 0.17 nM
- IC50 (Estrogen receptor [7]): > 0.1 µM
SMILES: O=C(c1ccc(OCCN2C(=O)CCC2=O)cc1)c1c(-c2ccc(O)cc2)oc(=O)c2cc(O)ccc12
- IC50 (MRC5): > 0.1 µM

- bioavailability (in vivo [8]): 91%
- IC50 (Estrogen receptor beta [1]): 0.102 µM
- logD (physchem): 2.14
- IC50 (MCF7): 0.00025 µM
- IC50 (Progesterone receptor): > 0.1 µM
- IC50 (Estrogen receptor [2]): 0.00019 µM
- IC50 (MDA-MB-231): 0.0918 µM
- log(RBA) (Estrogen receptor beta [3]): -0.06
- Ka (Estrogen receptor beta [4]): 57.6 nM
- IC50 (Ishikawa): 0.00034 µM
- bioavailability (in vivo [9]): 96%
- log(RBA) [5]: 2.67
- Ka [6]: 0.04 nM
- IC50 (Estrogen receptor [7]): > 0.1 µM
SMILES: Cc1cc(C(=O)CNc2c(-c3ccc(O)cc3)c(=O)oc3cc(O)ccc23)ccc1OCCN1CCC=C(C(=O)O)C1
- IC50 (MRC5): > 0.1 µM

- bioavailability (in vivo [8]): 91%
- IC50 (Estrogen receptor beta [1]): 0.0795 µM
- logD (physchem): 1.78
- IC50 (MCF7): 0.00045 µM
- IC50 (Progesterone receptor): > 0.1 µM
- IC50 (Estrogen receptor [2]): 0.00039 µM
- IC50 (MDA-MB-231): 0.0757 µM
- log(RBA) (Estrogen receptor beta [3]): 0.05
- Ka (Estrogen receptor beta [4]): 44.7 nM
- IC50 (Ishikawa): 0.00054 µM
- bioavailability (in vivo [9]): 94%
- log(RBA) [5]: 2.36
- Ka [6]: 0.08 nM
- IC50 (Estrogen receptor [7]): > 0.1 µM
SMILES: Nc1ccc(-c2c(C(=O)c3ccc(OCCNS(=O)(=O)O)cc3)c3ccc(O)cc3oc2=O)cc1
- IC50 (MRC5): > 0.1 µM

- IC50 (Estrogen receptor beta [1]): 0.0983 µM
- IC50 (Progesterone receptor): > 0.1 µM
SMILES: Cc1cc(N2Nc3cc(O)ccc3-c3c2c2ccc(O)cc2oc3=O)ccc1OCCN1CCC=C(C(=O)O)C1

- IC50 (Estrogen receptor beta [1]): 0.0454 µM
- IC50 (Estrogen receptor [2]): 0.144 µM
- log(RBA) (Estrogen receptor beta [3]): 0.29
- Ka (Estrogen receptor beta [4]): 25.5 nM
- log(RBA) [5]: -0.21
- Ka [6]: 32.3 nM
SMILES: Cc1cc(N2Nc3c(c(=O)oc4cc(O)ccc34)-c3ccc(O)cc32)ccc1OCCN1CCC=C(C(=O)O)C1

- IC50 (Progesterone receptor): > 0.1 µM
- IC50 (Estrogen receptor [2]): 0.00105 µM
- IC50 (Estrogen receptor [7]): > 0.1 µM
SMILES: Cc1cc(C(=O)C2=C(c3ccc(O)cc3)COc3cc(O)ccc32)ccc1OCCN1C=Cc2cccnc2C1

- IC50 (Progesterone receptor): > 0.1 µM
- IC50 (Estrogen receptor [2]): 0.00113 µM
- IC50 (Estrogen receptor [7]): > 0.1 µM
SMILES: Cc1cc(C(=O)C2=C(c3ccc(O)cc3)COc3cc(O)ccc32)ccc1OCCN1Cc2cccnc2C1

- IC50 (Progesterone receptor): > 0.1 µM
- IC50 (Estrogen receptor [2]): 0.039 µM
- IC50 (Estrogen receptor [7]): > 0.1 µM
SMILES: Nc1ccc(-c2c(C(=O)c3ccc(OCCN4CC(C(=O)O)=CCC4=O)cc3)c3ccc(O)cc3oc2=O)cc1

- bioavailability (in vivo [8]): 93%
- IC50 (MCF7): 0.00089 µM
- IC50 (MDA-MB-231): 0.0924 µM
- log(RBA) (Estrogen receptor beta [3]): 0.08
- Ka (Estrogen receptor beta [4]): 41.2 nM
- IC50 (Ishikawa): 0.00094 µM
- bioavailability (in vivo [9]): 96%
- logD [10]: 2.37
SMILES: O=C(c1ccc(OCCN2CCCCC2)cc1)c1c(-c2ccc(O)cc2)sc2cc(O)ccc12 [RALOXIFENE]

- bioavailability (in vivo [8]): 88%
- IC50 (Estrogen receptor beta [1]): 0.0725 µM
- logD (physchem): 1.86
- IC50 (MCF7): 0.00044 µM
- IC50 (Progesterone receptor): > 0.1 µM
- IC50 (Estrogen receptor [2]): 0.037 µM
- IC50 (MDA-MB-231): 0.077 µM
- log(RBA) (Estrogen receptor beta [3]): 0.09
- Ka (Estrogen receptor beta [4]): 40.7 nM
- IC50 (Ishikawa): 0.00041 µM
- bioavailability (in vivo [9]): 91%
- log(RBA) [5]: 2.38
- Ka [6]: 0.04 nM
- IC50 (Estrogen receptor [7]): > 0.1 µM
SMILES: Nc1ccc(-c2c(C(=O)c3ccc(OCCN4CC(C(=O)O)=CCC4=O)cc3)c3ccc(O)cc3[nH]c2=O)cc1
- IC50 (MRC5): > 0.1 µM

Continued, compound first:

SMILES: O=C(c1ccc(OCCN2C=Cc3ccccc3C2)cc1)c1c(-c2ccc(O)cc2)oc(=O)c2cc(O)ccc12
- IC50 (Estrogen receptor beta [1]): 0.0427 µM
- IC50 (MCF7): 0.0008 µM
- IC50 (Progesterone receptor): > 0.1 µM
- IC50 (Estrogen receptor [2]): 0.00071 µM
- IC50 (MDA-MB-231): 0.0417 µM
- log(RBA) (Estrogen receptor beta [3]): 0.32
- Ka (Estrogen receptor beta [4]): 24 nM
- IC50 (Ishikawa): 0.00076 µM
- IC50 (MRC5): > 0.1 µM
- log(RBA) [5]: 2.1
- Ka [6]: 0.16 nM
- IC50 (Estrogen receptor [7]): > 0.1 µM

SMILES: O=C(COCN1CCCCC1)CN1Nc2c(c(=O)oc3cc(O)ccc23)-c2ccc(O)cc21
- IC50 (Estrogen receptor beta [1]): 0.0368 µM
- IC50 (Estrogen receptor [2]): 0.375 µM
- log(RBA) (Estrogen receptor beta [3]): 0.38
- Ka (Estrogen receptor beta [4]): 20.7 nM
- log(RBA) [5]: -0.63
- Ka [6]: 84.3 nM

SMILES: CC(CN1CCCC2CCCNC21)OCC(=O)N1NC2c3ccc(O)cc3OCC2c2ccc(O)cc21 (configuration not stated)
- IC50 (Estrogen receptor [2]): 0.168 µM

SMILES: CC/C(=C(\c1ccc(O)cc1)c1ccc(OCCN(C)C)cc1)c1ccccc1 [AFIMOXIFENE]
- bioavailability (in vivo [8]): 87%
- logD (physchem): 3.62
- IC50 (MCF7): 0.0012 µM
- IC50 (Progesterone receptor): > 0.1 µM
- IC50 (MDA-MB-231): 0.0368 µM
- IC50 (Ishikawa): 0.00127 µM
- IC50 (MRC5): > 0.1 µM
- bioavailability (in vivo [9]): 94%

SMILES: O=C(COCN1CCCCC1)CN1Nc2cc(O)ccc2-c2c1c1ccc(O)cc1oc2=O
- IC50 (Estrogen receptor beta [1]): 0.0864 µM
- IC50 (MCF7): 0.00103 µM
- IC50 (Progesterone receptor): > 0.1 µM
- IC50 (Estrogen receptor [2]): 0.00076 µM
- IC50 (MDA-MB-231): 0.0418 µM
- log(RBA) (Estrogen receptor beta [3]): 0.01
- Ka (Estrogen receptor beta [4]): 48.5 nM
- IC50 (Ishikawa): 0.00096 µM
- IC50 (MRC5): > 0.1 µM
- log(RBA) [5]: 2.07
- Ka [6]: 0.17 nM
- IC50 (Estrogen receptor [7]): > 0.1 µM

SMILES: CNCCOc1ccc(N2Nc3cc(O)ccc3-c3c2c2ccc(O)cc2oc3=O)cc1
- IC50 (Progesterone receptor): > 0.1 µM
- IC50 (Estrogen receptor [2]): 0.00033 µM
- IC50 (Estrogen receptor [7]): > 0.1 µM

SMILES: CNCCOc1ccc(N2Nc3c(c(=O)oc4cc(O)ccc34)-c3ccc(O)cc32)cc1
- IC50 (Estrogen receptor beta [1]): 0.0288 µM
- IC50 (Estrogen receptor [2]): 0.161 µM
- log(RBA) (Estrogen receptor beta [3]): 0.49
- Ka (Estrogen receptor beta [4]): 16.2 nM
- log(RBA) [5]: -0.26
- Ka [6]: 36.1 nM

SMILES: CC(CN1CCCC2CCCNC21)OCC(=O)N1Nc2cc(O)ccc2C2COc3cc(O)ccc3C21 (configuration not stated)
- IC50 (Estrogen receptor beta [1]): 0.0671 µM
- IC50 (MCF7): 0.00073 µM
- IC50 (Progesterone receptor): > 0.1 µM
- IC50 (Estrogen receptor [2]): 0.00067 µM
- IC50 (MDA-MB-231): 0.0515 µM
- log(RBA) (Estrogen receptor beta [3]): 0.12
- Ka (Estrogen receptor beta [4]): 37.7 nM
- IC50 (Ishikawa): 0.00077 µM
- IC50 (MRC5): > 0.1 µM
- log(RBA) [5]: 2.12
- Ka [6]: 0.15 nM
- IC50 (Estrogen receptor [7]): > 0.1 µM
